According to patent US20250017849A1 (ETH ZURICH, priority 2021, published 2025):

Columns and labels:
[1] = dog, in vivo
Description: As a control formulation, enteric-coated (Eudragit® L100-55, Essen, Germany) capsules containing commercial Minirin® drug tablets (6 pieces containing 1.2 mg desmopressin in total) was given orally to the dog.
A 3D printed clamp containing a cavity for the suction patch containing 1.2 mg desmopressin, 1.2 mg PVA, and 5.7 mg NaTaC was attached to the dog's mucosa, ensuring similar conditions (i.e., enclosed environment, close contact to the mucosa, same sample preparation and loading) as the applied suction patch, but […] and without negative pressure and the resulting tissue deformation.
The dogs were anesthetized for the duration of the experiment (3 h). […] Blood samples were collected in K2EDTA tubes immediately followed by centrifugation at 1700 G for 10 min at 4° C. Subsequently, the plasma was stored in clear polypropylene vials at −80° C. until further analysis. The drug plasma concentration was evaluated using LC-MS/MS method. Briefly, an aliquot of 900 μL dog plasma sample was mixed with 10 μL internal standard (Goserelin; 25 ng/mL) and 300 μL 4% H3PO4 acidified water into 1.5 mL Eppendorf tubes. The plasma sample was then extracted using Oasis™ WAX solid-phase extraction cartridges. […] Samples were analyzed in TOF-MRM mode with a quantification limit of […]. […]

[2] = pharmacokinetic study of semaglutide mucosal suction patch in beagle dogs; assay type: in vivo; conditions: patch with 9 mg semaglutide, 1.2 mg PVA, 11.7 mg NaTaC
Description: Briefly, an aliquot of 900 μL dog plasma sample was mixed with 10 μL internal standard (Goserelin; 25 ng/mL) and 300 μL 4% H3PO4 acidified water into 1.5 mL Eppendorf tubes. The plasma sample was then extracted using Oasis™ WAX solid-phase extraction cartridges.
The drug plasma concentration was evaluated using an LC-MS/MS method as described in Example 11.

porcine buccal mucosa [3] = assay: ex vivo effect of hypobaric pressure on diffusion of marker molecule in porcine buccal mucosa; assay type: in vitro ADME; conditions: 54 μg Cy5, 2.1 mg C10, 1.2 mg PVA, pressure set to 30 kPa, 37° C., 3 h
Description: The device could continuously monitor and control the pressure inside the patch to a constant value, e.g., 30 kPa. For the application, the buccal tissue was prepared as described above and placed in a 6-well plate that is filled with DMEM buffer. […] Subsequently, the pressure was set by the reduction valve to 30 kPa and left in the 37° C. incubators for 3 h. Afterwards, the vacuum pump was turned off and the mucosal suction patches were detached. The tissue specimen was processed as described before for fluorescent imaging. The intensity of each image was converted to the equivalent of 150 ms exposure time to allow the comparability. When plotting the fluorescent intensity-distance profile, the absolute intensity was utilized instead of the normalized in order to compare the pressure-related permeation enhancing effects among different samples.

[4] = oral formulation, even in the presence of permeation enhancers; cited from earlier work
porcine buccal mucosa [5] = assay: ex vivo permeation of surrogates through porcine buccal mucosa with mucosal suction patch; assay type: in vitro ADME; conditions: patch with surrogate, 1.2 mg PVA, 5.7 mg NaTaC, 3 h
Description: Specimen were permeabilized with a 0.5% Trition™ X100 PBS buffered solution for 15 min, washed for 3 min in PBS and incubated with a PBS buffered solution of 0.1% iFluor™ 488-conjugated phalloidin (F-Actin stain) and 0.1% Hoechst 33342 (Nucleous stain) for 30 min.
Fluorescence images were obtained with a widefield microscope (Leica DMI 6000) at 20× magnification in the tile scan mode and merged to a single image. The specimen was excited at 590-650 nm and the emission filtered from 662-738 nm. To evaluate the penetration depth of the surrogate, images were processed as grayscale with Fiji-ImageJ™ software. Line profiles of the grayscale intensity were obtained by drawing multiple straight lines vertical to the surface of the mucosa lining. The obtained intensity-distance profiles were transferred to Microsoft Excel™ and MatLab™ for further processing. The autofluorescence was first corrected by subtracting the averaged baseline intensity multiplied by 3 times its standard deviation obtained from a lower laying region of the tissue. The maximum intensity was set to 100% and the corresponding distance value was set to zero to normalize the drug distribution profile. […]
The molecular weight range of administrable drugs was evaluated ex-vivo on porcine buccal mucosa tissue by applying drug surrogates with different molecular weights. […]

NC(=O)CC[C@@H]1NC(=O)[C@H](Cc2ccccc2)NC(=O)[C@H](Cc2ccc(O)cc2)NC(=O)CCSSC[C@@H](C(=O)N2CCC[C@H]2C(=O)N[C@H](CCCN=C(N)N)C(=O)NCC(N)=O)NC(=O)[C@H](CC(N)=O)NC1=O [desmopressin]
bioavailability higher than commercial tablets [1]: 35%

CC[C@H](C)[C@H](NC(=O)[C@H](Cc1ccccc1)NC(=O)[C@H](CCC(=O)O)NC(=O)[C@H](CCCCNC(=O)COCCOCCNC(=O)COCCOCCNC(=O)CC[C@H](NC(=O)CCCCCCCCCCCCCCCCC(=O)O)C(=O)O)NC(=O)[C@H](C)NC(=O)[C@H](C)NC(=O)[C@H](CCC(N)=O)NC(=O)CNC(=O)[C@H](CCC(=O)O)NC(=O)[C@H](CC(C)C)NC(=O)[C@H](Cc1ccc(O)cc1)NC(=O)[C@H](CO)NC(=O)[C@H](CO)NC(=O)[C@@H](NC(=O)[C@H](CC(=O)O)NC(=O)[C@H](CO)NC(=O)[C@@H](NC(=O)[C@H](Cc1ccccc1)NC(=O)[C@@H](NC(=O)CNC(=O)[C@H](CCC(=O)O)NC(=O)C(C)(C)NC(=O)[C@@H](N)Cc1cnc[nH]1)[C@@H](C)O)[C@@H](C)O)C(C)C)C(=O)N[C@@H](C)C(=O)N[C@@H](Cc1c[nH]c2ccccc12)C(=O)N[C@@H](CC(C)C)C(=O)N[C@H](C(=O)N[C@@H](CCCNC(=N)N)C(=O)NCC(=O)N[C@@H](CCCNC(=N)N)C(=O)NCC(=O)O)C(C)C [semaglutide]
plasma concentrations [2]: therapeutic relevant plasma concentrations

Cy5
effect of negative pressure on drug permeation (porcine buccal mucosa [3]): effectively enhanced the drug permeation

octreotride
oral bioavailability [4]: 0.5-1%

B1: Alexa647-Ovalbumin: Alexa647 dye linked to ovalbumin (≈5.5 nm, 45 kDa) (conjugate, UniProt P01012 2-386, looked up)
Ovalbumin: GSIGAASMEFCFDVFKELKVHHANENIFYCPIAIMSALAMVYLGAKDSTRTQINKVVRFDKLPGFGDSIEAQCGTSVNVHSSLRDILNQITKPNDVYSFSLASRLYAEERYPILPEYLQCVKELYRGGLEPINFQTAADQARELINSWVESQTNGIIRNVLQPSSVDSQTAMVLVNAIVFKGLWEKAFKDEDTQAMPFRVTEQESKPVQMMYQIGLFRVASMASEKMKILELPFASGTMSMLVLLPDEVSGLEQLESIINFEKLTEWTSSNVMEERKIKVYLPRMKMEEKYNLTSVLMAMGITDVFSSSANLSGISSAESLKISQAVHAAHAEINEAGREVVGSAEAGVDAASVSEEFRADHPFLFCIKHIATNAVLFFGRCVSP
modifications: Alexa647 dye
crossing of the mucosal epithelium (porcine buccal mucosa [5]): reach deep inside
